The source of these data is US20090047246A1, “NOVEL INHIBITORS OF HEPATITIS C VIRUS REPLICATION” (InterMune, Inc., priority 2007, published 2009).

One assay deals with T1, HCV NS3 helicase (Hepatitis C virus genotype 1b, UniProt P26663).
T1 construct: full-length NS3 (1-631), purified at Array BioPharma
Description: HCV Helicase Prompt FRET Assay (Example A). It counts as biochemical. In short, it runs like this: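 Initial unwinding rates, monitored as FAM fluorescence gain (ex 485, em 535) over ~30 min at room temperature, gave IC50 via 4- or 5-parameter logistic fits. Reactions: 50 nM quenched duplex, 250 nM capture strand, 300 μM ATP, 5–6 nM NS3 1-631 after 5 min compound preincubation, MOPS pH 7.0 buffer, 2% DMSO.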

In the next assay the target is NS3 Helicase (Hepatitis C virus genotype 1b, UniProt P26663). Put plainly: Activity of NS3 Helicase in Presence of Detergent with or without LDAO (Table A). It counts as biochemical. The note with it: plus LDAO 0.6 mM; for Activity: control = 100. On the procedure:
In another embodiment, at least one detergent is added to a solution containing NS3 to improve the helicase activity. In some embodiments, the detergent is selected from the group consisting of LDAO, Tween 20, Triton X100, Pluronic F127, CHAPS, β-octyl glucoside, laurylmaltoside, N-lauroylsarcosine, and hexadecyltrimethylammonium bromide. In a preferred embodiment, LDAO is added. In a more preferred embodiment, at least one additional detergent in added to the solution containing NS3 and LDAO. In some embodiments, the additional detergent(s) is/are selected from the group consisting of Tween 20, Triton X100, Pluronic F127, CHAPS, β-octyl glucoside, laurylmaltoside, N-lauroylsarcosine, and hexadecyltrimethylammonium bromide. Table A represents the helicase activity of NS3 in the presence of LDAO and at least one additional detergent; and, in the absence of LDAO and the presence of at least one other detergent.

Setting [1] is: HCV NS3 helicase, tables do not say whether Example A or Example B assay, read-out: IC50 Activity.
[2] abbreviates: Table 37, compounds made using Scheme 55, read-out: IC50 Activity.
The mark [3] stands for this setting: Table 38, compounds made using Scheme 56, Scheme 57 and Scheme 61, read-out: IC50 Activity.
[4] abbreviates: Table 36, compounds made using Scheme 54, read-out: IC50 Activity.
The mark [5] stands for this setting: Table 35, compounds made using Scheme 53, read-out: IC50 Activity.

Where two headings read alike, the source gives them in different places.

T1 sequence (P26663 1027-1657): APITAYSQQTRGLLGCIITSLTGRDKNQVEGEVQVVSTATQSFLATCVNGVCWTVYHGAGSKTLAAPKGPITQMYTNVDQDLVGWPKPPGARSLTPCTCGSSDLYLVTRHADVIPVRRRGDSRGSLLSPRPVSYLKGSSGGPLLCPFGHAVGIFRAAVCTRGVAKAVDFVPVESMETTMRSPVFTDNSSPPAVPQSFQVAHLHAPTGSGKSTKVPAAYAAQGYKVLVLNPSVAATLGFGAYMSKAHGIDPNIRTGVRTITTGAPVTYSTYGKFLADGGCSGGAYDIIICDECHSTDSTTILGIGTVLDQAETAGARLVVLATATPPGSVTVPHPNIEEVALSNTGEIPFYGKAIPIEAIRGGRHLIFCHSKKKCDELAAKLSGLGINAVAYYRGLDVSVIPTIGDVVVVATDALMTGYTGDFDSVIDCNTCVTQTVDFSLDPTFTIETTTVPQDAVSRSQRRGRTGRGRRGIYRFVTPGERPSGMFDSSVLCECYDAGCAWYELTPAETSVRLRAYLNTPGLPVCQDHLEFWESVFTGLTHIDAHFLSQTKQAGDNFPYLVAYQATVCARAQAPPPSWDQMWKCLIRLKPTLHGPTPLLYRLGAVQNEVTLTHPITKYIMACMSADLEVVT
Sequence of NS3 Helicase (P26663 1027-1657): as above

What is called IC50 is the concentration needed to halve the response being measured. In the case of `O=C(O)Cc1cn(Cc2csc3ccc(Cl)cc23)c2cc(-c3ccnc(NCCO)c3)ccc12` [Example 741], at HCV NS3 helicase (setting [1]), the IC50 is < 10 µM. In the case of `OC1CCCN(c2ccc3ccn(Cc4csc5ccc(Cl)cc45)c3c2)C1` (stereo not drawn) [Example 742], the IC50 at HCV NS3 helicase (setting [1]) was 10 to 50 µM. For the compound `O=C(O)Cc1cn(Cc2csc3ccc(Cl)cc23)c2cc(-c3cccnc3)ccc12` [Example 743], the IC50 at HCV NS3 helicase (setting [1]) was 10 to 50 µM. Turning to `O=C(O)C(=O)c1cn(Cc2csc3ccc(Cl)cc23)c2cc(N3CCCC(O)C3)ccc12` (stereo not drawn) [Example 744], the IC50 at HCV NS3 helicase (setting [1]) was < 10 µM.

Consider `COc1cccc(-c2ccc3c(CC(=O)O)cn(Cc4csc5ccc(Cl)cc45)c3c2)c1` [Example 746], for which the IC50 at HCV NS3 helicase (setting [2]) was > 50 µM.

For `O=C(O)Cc1cn(Cc2csc3ccc(Cl)cc23)c2cc(N3CCCC(O)C3)ccc12` (stereo not drawn) [Example 746], the concentration for half-maximal inhibition (IC50) on HCV NS3 helicase (setting [1]) lay in the range of 10 to 50 µM. For the compound `COc1ccccc1-c1ccc2c(CC(=O)O)cn(Cc3csc4ccc(Cl)cc34)c2c1` [Example 747], the IC50 at HCV NS3 helicase (setting [2]) is > 50 µM.

Regarding `Nc1cc(-c2ccc3c(CC(=O)O)cn(Cc4csc5ccc(Cl)cc45)c3c2)ccn1` [Example 747], at HCV NS3 helicase (setting [1]), the IC50 lay within 10 to 50 µM.

For the compound `Cc1ccc(-c2ccc3c(CC(=O)O)cn(Cc4csc5ccc(Cl)cc45)c3c2)cc1` [Example 751], at HCV NS3 helicase (setting [2]), the IC50 was > 50 µM. On to `Cc1cccc(-c2ccc3c(CC(=O)O)cn(Cc4csc5ccc(Cl)cc45)c3c2)c1` [Example 752], for which, on HCV NS3 helicase (setting [2]), the IC50 is 10 to 50 µM. Regarding `O=C(O)Cc1cn(Cc2csc3ccc(Cl)cc23)c2cc(-c3ccc(Cl)cc3)ccc12` [Example 753], on HCV NS3 helicase (setting [2]), the IC50 was > 50 µM. On the same count and under the same terms, in the case of `O=C(O)Cc1cn(Cc2csc3ccc(Cl)cc23)c2cc(-c3cccc(Cl)c3)ccc12` [Example 754] it was > 50 µM.

For the compound `N#Cc1ccccc1-c1ccc2c(CC(=O)O)cn(Cc3csc4ccc(Cl)cc34)c2c1` [Example 755], the IC50 on HCV NS3 helicase (setting [2]) is > 50 µM.

Consider `N#Cc1cccc(-c2ccc3c(CC(=O)O)cn(Cc4csc5ccc(Cl)cc45)c3c2)c1` [Example 756], for which the IC50 on HCV NS3 helicase (setting [2]) lay in the range of 10 to 50 µM. With `N#Cc1ccc(-c2ccc3c(CC(=O)O)cn(Cc4csc5ccc(Cl)cc45)c3c2)cc1` [Example 757], the IC50 on HCV NS3 helicase (setting [2]) lay in the range of 10 to 50 µM. On the same count and under the same terms, in the case of `O=C(O)Cc1cn(Cc2csc3ccc(Cl)cc23)c2cc(-c3ccccc3F)ccc12` [Example 758] it was > 50 µM; in that of `O=C(O)Cc1cn(Cc2csc3ccc(Cl)cc23)c2cc(-c3cccc(F)c3)ccc12` [Example 759], > 50 µM. With `O=C(O)Cc1cn(Cc2csc3ccc(Cl)cc23)c2cc(-c3cccc(CO)c3)ccc12` [Example 760], the IC50 at HCV NS3 helicase (setting [2]) lay in the range of 10 to 50 µM. On the same count and under the same terms, in the case of `CN(C)C(=O)c1cccc(-c2ccc3c(CC(=O)O)cn(Cc4csc5ccc(Cl)cc45)c3c2)c1` [Example 761] it was 10 to 50 µM. On to `NC(=O)c1ccccc1-c1ccc2c(CC(=O)O)cn(Cc3csc4ccc(Cl)cc34)c2c1` [Example 762], for which, on HCV NS3 helicase (setting [2]), the IC50 was > 50 µM. As for `NC(=O)c1cccc(-c2ccc3c(CC(=O)O)cn(Cc4csc5ccc(Cl)cc45)c3c2)c1` [Example 763], the IC50 at HCV NS3 helicase (setting [2]) lay in the range of 10 to 50 µM.

`O=C(O)Cc1cn(Cc2csc3ccc(Cl)cc23)c2cc(-c3ccncc3)ccc12` [Example 764]: the IC50 on HCV NS3 helicase (setting [2]) is 10 to 50 µM.

Consider `Nc1cccc(-c2ccc3c(CC(=O)O)cn(Cc4csc5ccc(Cl)cc45)c3c2)c1` [Example 765], for which the IC50 on HCV NS3 helicase (setting [2]) was < 10 µM.

`CC(=O)Nc1cccc(-c2ccc3c(CC(=O)O)cn(Cc4csc5ccc(Cl)cc45)c3c2)c1` [Example 766]: the IC50 at HCV NS3 helicase (setting [2]) was 10 to 50 µM. Regarding `NC(=O)Nc1cccc(-c2ccc3c(CC(=O)O)cn(Cc4csc5ccc(Cl)cc45)c3c2)c1` [Example 767], the IC50 at HCV NS3 helicase (setting [2]) lay in the range of 10 to 50 µM. As for `CC(=O)Nc1ccccc1-c1ccc2c(CC(=O)O)cn(Cc3csc4ccc(Cl)cc34)c2c1` [Example 768], the IC50 on HCV NS3 helicase (setting [2]) is 10 to 50 µM. Consider `NC(=O)Nc1ccccc1-c1ccc2c(CC(=O)O)cn(Cc3csc4ccc(Cl)cc34)c2c1` [Example 769], for which, at HCV NS3 helicase (setting [2]), the IC50 is > 50 µM. On the same count and under the same terms, in the case of `Cc1sc2ccc(Cl)cc2c1Cn1cc(CC(=O)O)c2ccc(-c3ccccc3)cc21` [Example 770] it was < 10 µM.

`CCOC(=O)Cc1cn(Cc2csc3c(N(C=O)CC)cc(Cl)cc23)c2cc(Br)ccc12` [Example 771]: the IC50 on HCV NS3 helicase (setting [3]) is > 50 µM.

For `CCNc1cc(Cl)cc2c(Cn3cc(CC(=O)O)c4ccc(Br)cc43)csc12` [Example 772], the IC50 on HCV NS3 helicase (setting [3]) is > 50 µM. Regarding `CC(C)(C)OC(=O)N(c1cc(Cl)cc2c(Cn3cc(CC(=O)O)c4ccc(Br)cc43)csc12)C1CC1` [Example 773], the IC50 on HCV NS3 helicase (setting [3]) is > 50 µM.

Take `CC(C)(C)OC(=O)N(c1cc(Cl)cc2c(Cn3cc(CC(=O)O)c4ccc(Br)cc43)csc12)C1CC1` [Example 774]: on HCV NS3 helicase (setting [3]), the IC50 is < 10 µM. As to `Cc1sc2ccc(Cl)cc2c1Cn1cc(CC(=O)O)c2ccc(Br)cc21` [Example 777], at HCV NS3 helicase (setting [4]), the IC50 lay within 10 to 50 µM. Consider `Cc1sc2ccc(Cl)cc2c1Cn1cc(CC(=O)O)c2ccc(-c3cc(N)cc(N)c3)cc21` [Example 778], for which the IC50 on HCV NS3 helicase (setting [4]) was < 10 µM. Turning to `CCOC(=O)Cc1cn(Cc2csc3c(Cl)c(Cl)ccc23)c2cc(Br)ccc12` [Example 779], the IC50 on HCV NS3 helicase (setting [4]) was > 50 µM. Regarding `O=C(O)Cc1cn(Cc2csc3c(Cl)c(Cl)ccc23)c2cc(Br)ccc12` [Example 780], at HCV NS3 helicase (setting [4]), the IC50 was > 50 µM. `O=C(O)Cc1cn(Cc2csc3c(Cl)cccc23)c2cc(Br)ccc12` [Example 782]: at HCV NS3 helicase (setting [4]), the IC50 was > 50 µM. Same read-out and setting: in the case of `O=C(O)Cc1cn(Cc2csc3cccc(Cl)c23)c2cc(Br)ccc12` [Example 783] it was 10 to 50 µM; in that of `O=C(O)Cc1cn(Cc2csc3cccc(Cl)c23)c2cc(Br)ccc12` [Example 784], > 50 µM; in that of `O=C(O)Cc1cn(Cc2csc3cc(Cl)ccc23)c2cc(Br)ccc12` [Example 785], > 50 µM.

As to `O=C(O)Cc1cn(Cc2csc3cc(Cl)cc(Cl)c23)c2cc(Br)ccc12` [Example 786], the IC50 on HCV NS3 helicase (setting [4]) is > 50 µM. For the compound `Nc1cc(N)cc(-c2ccc3c(CC(=O)O)cn(Cc4csc5cc(Cl)cc(Cl)c45)c3c2)c1` [Example 787], the IC50 on HCV NS3 helicase (setting [4]) is 10 to 50 µM. As for `Cc1sc2cc(Cl)c(F)cc2c1Cn1cc(CC(=O)O)c2ccc(-c3cc(N)cc(N)c3)cc21` [Example 788], on HCV NS3 helicase (setting [4]), the IC50 is < 10 µM. With `N#Cc1ccc2c(CC(=O)O)cn(Cc3csc4ccc(Cl)cc34)c2c1` [Example 789], the IC50 on HCV NS3 helicase (setting [4]) lay within 10 to 50 µM. Same read-out and setting: in the case of `Cc1sc2ccc(Cl)cc2c1Cn1cc(CC(=O)O)c2ccccc21` [Example 790] it was > 50 µM.

On to `CCOC(=O)Cc1cn(Cc2cccc3nc(C)ccc23)c2cc(-c3cc(N)cc(N)c3)ccc12` [Example 791], for which, on HCV NS3 helicase (setting [5]), the IC50 was in the range of 10 to 50 µM.

Take `CCOC(=O)Cc1cn(Cc2csc3ccc(F)cc23)c2cc(-c3cc([N+](=O)[O-])cc([N+](=O)[O-])c3)ccc12` [Example 792]: the IC50 at HCV NS3 helicase (setting [5]) is > 50 µM. As to `CCOC(=O)Cc1cn(Cc2cccc3sc(Cl)nc23)c2cc(-c3cc([N+](=O)[O-])cc([N+](=O)[O-])c3)ccc12` [Example 793], at HCV NS3 helicase (setting [5]), the IC50 lay within 10 to 50 µM. For the compound `CCOC(=O)Cc1cn(Cc2cccc3sc(Cl)nc23)c2cc(-c3cc(N)cc(N)c3)ccc12` [Example 794], the IC50 at HCV NS3 helicase (setting [5]) is 10 to 50 µM.

Consider `CCOC(=O)Cc1cn(C(=O)c2csc3ccc(Cl)cc23)c2cc(-c3cc([N+](=O)[O-])cc([N+](=O)[O-])c3)ccc12` [Example 795], for which, on HCV NS3 helicase (IC50 Activity, Table 38, compounds made using Scheme 56, Scheme 57 and Scheme 61), the IC50 was > 50 µM. Regarding `CCCCCCCCCCCC(=O)N(C)CC(=O)O` [N-lauroylsarcosine], the Slope at NS3 Helicase (detergent 0.05 mM) is given as −0.53 mP/min; on NS3 Helicase (detergent 0.2 mM) it was −0.28 mP/min. The figures for the Activity at NS3 Helicase (detergent 0.05 mM) and at NS3 Helicase (detergent 0.2 mM) were 87% and 46%, respectively. The matching figures for `CCCCCCCCCCCCCCCC[N+](C)(C)C.[Br-]` [hexadecyltrimethylammonium bromide]: 0.24 mP/min, 0.74 mP/min, −39% and −121%. As for `CCCCCCCCCCCCO[C@@H]1O[C@H](CO)[C@@H](O[C@H]2O[C@H](CO)[C@@H](O)[C@H](O)[C@H]2O)[C@H](O)[C@H]1O` [laurylmaltoside], at NS3 Helicase (detergent 0.05 mM), the Slope is −0.8 mP/min and the Activity was found to be 131%. Further, on NS3 Helicase (detergent 0.2 mM), the Slope is −1.23 mP/min and the Activity turned out to be 202%. `CCCCCCCCO[C@@H]1O[C@H](CO)[C@@H](O)[C@H](O)[C@H]1O` [β-octyl glucoside]: on NS3 Helicase (detergent 0.020%), the Slope is given as −0.45 mP/min and the Activity came to 74%. In addition, on NS3 Helicase (detergent 0.075%), the Slope was −0.38 mP/min and the Activity stood at 62%.
